The test concerns the target human GPR17 short isoform (Homo sapiens, UniProt Q13304). Description: GPR17 cAMP assay (hGPR17 cAMP). It is filed as cell-based. Conditions: CHO-K1 cells stably expressing human GPR17 short isoform; antagonist mode with EC80 of MDL29,951, forskolin 15 μM, TR-FRET cAMP. Here is the method: GPR17 cAMP Assay Protocol:
CHO-K1 cells stably expressing vector containing untagged human GPR17 short isoform (Roche) were cultured at 37° C./5% CO2 in DMEM (Dulbecco's Modified Eagle Medium):F-12 (1:1) supplemented with 10% foetal bovine serum and 400 μg/ml Geneticin.
Changes in intracellular cyclic adenosine monophosphate (cAMP) levels were quantified using the Nano-TRF Detection Assay kit (Roche Diagnostics, Cat. No. 05214386001). This assay allows for direct cAMP quantification in a homogeneous solution. cAMP is detected based on time-resolved fluorescence energy transfer (TR-FRET) and competitive binding of ruthenylated cAMP and endogenous cAMP to an anti-cAMP monoclonal antibody labeled with AlexaFluor-700. The Ruthenium complex serves as the FRET donor and transfers energy to AlexaFluor-700. The FRET signal is inversely proportional to the cAMP concentration.
CHO-GPR17S cells were detached with Accutase and resuspended in assay buffer consisting of Hank's Balanced Salt Solution (HBSS), 10 mM HEPES (4-(2-hydroxyethyl) piperazine-1-ethanesulfonic acid solution) and 0.1% bovine serum albumin (pH 7.4). The cells were seeded in black 384-well plates (Corning) at a density of 10'000 cells/20 μl assay buffer until the addition of compounds.
Test antagonist compounds were serially diluted in dimethyl sulfoxide (DMSO) and spotted in 384-well plates. The compounds were then diluted in HBSS buffer supplemented with an EC80 concentration of MDL29,951 (3-(2-Carboxy-4,6-dichloroindol-3-yl)propionic acid) (GPR17 agonist) plus 3-Isobutyl-1-methylxanthine (IBMX) (0.5 mM final concentration) and added to the cells at room temperature. Forskolin (15 μM final concentration) was added 5 minutes after the test compounds and the cells were incubated at room temperature for 30 minutes. The assay was stopped by adding cAMP detection mix (containing detergents for cell lysis) for 90 minutes at room temperature.
Cellular cAMP was measured using a Paradigm reader (Molecular Devices). The raw data was used to calculate the FRET signal based on the assay's P-factor as per cAMP kit instructions. The data was normalized to the maximal activity of a reference antagonist and dose response curves were fitted to the percent activity of the test compounds using a sigmoidal dose response model (Genedata Screener).
In general terms: Cyclic AMP is a second messenger, typically raised through Gs and lowered through Gi signalling.
human GPR17 short isoform, sequence (Q13304 29-367): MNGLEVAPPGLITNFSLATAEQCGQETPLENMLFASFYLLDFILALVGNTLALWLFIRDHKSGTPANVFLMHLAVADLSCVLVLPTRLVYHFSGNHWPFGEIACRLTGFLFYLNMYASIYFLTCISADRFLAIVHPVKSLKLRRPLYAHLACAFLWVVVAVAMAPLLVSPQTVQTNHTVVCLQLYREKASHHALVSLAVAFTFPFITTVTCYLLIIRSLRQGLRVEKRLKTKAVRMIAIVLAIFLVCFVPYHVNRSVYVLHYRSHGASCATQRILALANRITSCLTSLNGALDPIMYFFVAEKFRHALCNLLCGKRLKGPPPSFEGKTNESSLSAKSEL
As for `COc1nc(NS(=O)(=O)c2c[nH]c(-c3nccs3)c2)ncc1OCC(F)F` [Example 9, N-[5-(2,2-difluoroethoxy)-4-methoxy-pyrimidin-2-yl]-5-thiazol-2-yl-1H-pyrrole-3-sulfonamide], the IC50 amounted to 697 nM.

In turn, `COc1nc(NS(=O)(=O)c2c[nH]cc2Cc2ccccc2)nc(OC)c1OCC(F)F` [Example 30, 4-benzyl-N-[5-(2,2-difluoroethoxy)-4,6-dimethoxy-pyrimidin-2-yl]-1H-pyrrole-3-sulfonamide] gave a concentration for half-maximal inhibition (IC50) of 1860 nM.

`COc1nc(NS(=O)(=O)c2c[nH]c(-c3ncccc3F)c2)nc(OC)c1OCC(F)F` [Example 8, N-[5-(2,2-difluoroethoxy)-4,6-dimethoxy-pyrimidin-2-yl]-5-(3-fluoro-2-pyridyl)-1H-pyrrole-3-sulfonamide] gave a half-inhibitory concentration (IC50) of 99 nM.

In turn, `COc1nc(NS(=O)(=O)c2c[nH]cc2Cc2ccccc2)nc(OC)c1OC(F)F` [Example 22, 4-benzyl-N-[5-(difluoromethoxy)-4,6-dimethoxy-pyrimidin-2-yl]-1H-pyrrole-3-sulfonamide] showed an IC50 of 2260 nM.

For the compound `COc1nc(NS(=O)(=O)c2c[nH]c(-c3ccccc3)c2)nc(OC)c1OCCF` [Example 3, N-[5-(2-fluoroethoxy)-4,6-dimethoxy-pyrimidin-2-yl]-5-phenyl-1H-pyrrole-3-sulfonamide], the IC50 amounted to 73 nM.

As for `COc1nc(NS(=O)(=O)c2c[nH]c(-c3ccccn3)c2)nc(OC)c1OCC(F)F` [Example 19, N-[5-(2,2-difluoroethoxy)-4,6-dimethoxy-pyrimidin-2-yl]-5-(2-pyridyl)-1H-pyrrole-3-sulfonamide], 182 nM corresponded to half-maximal inhibition (IC50).

For the compound `COc1nc(NS(=O)(=O)c2c[nH]c(-c3ccccc3F)c2)nc(OC)c1OCC(F)F` [Example 40, N-[5-(2,2-difluoroethoxy)-4,6-dimethoxy-pyrimidin-2-yl]-5-(2-fluorophenyl)-1H-pyrrole-3-sulfonamide], the half-maximal inhibitory concentration (IC50) was determined as 540 nM.

The compound `[2H]C([2H])(c1cccc(F)c1)c1c[nH]cc1S(=O)(=O)Nc1nc(OC)c(OCC(F)F)c(OC)n1` [Example 29, 4-[dideuterio-(3-fluorophenyl)methyl]-N-[5-(2,2-difluoroethoxy)-4,6-dimethoxy-pyrimidin-2-yl]-1H-pyrrole-3-sulfonamide] gave a 50% inhibitory concentration (IC50) of 964 nM.

In the case of `COc1nc(NS(=O)(=O)c2c[nH]c(-c3nccs3)c2)nc(OC)c1C1CC1C#N` (stereo not drawn) [Example 35, N-[5-(2-cyanocyclopropyl)-4,6-dimethoxy-pyrimidin-2-yl]-5-thiazol-2-yl-1H-pyrrole-3-sulfonamide], half-maximal inhibition (IC50) required 170 nM.

In turn, `COc1nc(NS(=O)(=O)c2c[nH]c(-c3cccnn3)c2)nc(OC)c1OCC(F)F` [Example 45, N-[5-(2,2-difluoroethoxy)-4,6-dimethoxy-pyrimidin-2-yl]-5-pyridazin-3-yl-1H-pyrrole-3-sulfonamide] came in with a half-maximal inhibitory concentration (IC50) of 253 nM.

The compound `COc1nc(NS(=O)(=O)c2c[nH]c(-c3ncccc3F)c2)ncc1CC(F)F` [Example 24, N-[5-(2,2-difluoroethyl)-4-methoxy-pyrimidin-2-yl]-5-(3-fluoro-2-pyridyl)-1H-pyrrole-3-sulfonamide] came in with a 50% inhibitory concentration (IC50) of 331 nM.

The compound `COc1nc(NS(=O)(=O)c2c[nH]c(-c3ccsn3)c2)nc(OC)c1OCC(F)F` [Example 11, N-[5-(2,2-difluoroethoxy)-4,6-dimethoxy-pyrimidin-2-yl]-5-isothiazol-3-yl-1H-pyrrole-3-sulfonamide] displayed a 50% inhibitory concentration (IC50) of 142 nM.

Compound `COc1nc(NS(=O)(=O)c2c[nH]c(-c3cccn(C)c3=O)c2)nc(OC)c1OCC(F)F` [Example 41, N-[5-(2,2-difluoroethoxy)-4,6-dimethoxy-pyrimidin-2-yl]-5-(2-keto-1-methyl-3-pyridyl)-1H-pyrrole-3-sulfonamide] gave an IC50 of 1420 nM.

With `COc1nc(NS(=O)(=O)c2c[nH]c(-c3ncccc3F)c2)nc(OC)c1CCC#N` [Example 23, N-[5-(2-cyanoethyl)-4,6-dimethoxy-pyrimidin-2-yl]-5-(3-fluoro-2-pyridyl)-1H-pyrrole-3-sulfonamide], the half-maximal inhibitory concentration (IC50) was 45 nM.

Turning to `COc1nc(NS(=O)(=O)c2c[nH]c(-c3ccccc3)c2)nc(OC)c1OC(F)F` [Example 2, N-[5-(difluoromethoxy)-4,6-dimethoxy-pyrimidin-2-yl]-5-phenyl-1H-pyrrole-3-sulfonamide], the half-inhibitory concentration (IC50) worked out at 478 nM.

Compound `COc1nc(NS(=O)(=O)c2c[nH]c(-c3cscn3)c2)nc(OC)c1OCC(F)F` [Example 26, N-[5-(2,2-difluoroethoxy)-4,6-dimethoxy-pyrimidin-2-yl]-5-thiazol-4-yl-1H-pyrrole-3-sulfonamide] showed an IC50 of 724 nM.

`COc1nc(NS(=O)(=O)c2c[nH]c(-c3ccccc3F)c2)nc(OC)c1OCCF` [Example 38, N-[5-(2-fluoroethoxy)-4,6-dimethoxy-pyrimidin-2-yl]-5-(2-fluorophenyl)-1H-pyrrole-3-sulfonamide] registered an IC50 of 124 nM.

In turn, `COc1nc(NS(=O)(=O)c2c[nH]c(-c3ccccc3F)c2)nc(OC)c1CC(F)F` [Example 37, N-[5-(2,2-difluoroethyl)-4,6-dimethoxy-pyrimidin-2-yl]-5-(2-fluorophenyl)-1H-pyrrole-3-sulfonamide] returned an IC50 of 130 nM.

`COc1nc(NS(=O)(=O)c2c[nH]c(-c3ncccc3F)c2)nc(OC)c1OC(F)F` [Example 5, N-[5-(difluoromethoxy)-4,6-dimethoxy-pyrimidin-2-yl]-5-(3-fluoro-2-pyridyl)-1H-pyrrole-3-sulfonamide] yielded an IC50 of 325 nM.

In the case of `COc1nc(NS(=O)(=O)c2c[nH]c(-c3ccccc3)c2)nc(OC)c1CC(F)F` [Example 12, N-[5-(2,2-difluoroethyl)-4,6-dimethoxy-pyrimidin-2-yl]-5-phenyl-1H-pyrrole-3-sulfonamide], the IC50 amounted to 169 nM.

Consider `COc1nc(NS(=O)(=O)c2c[nH]c(-c3ccccn3)c2)nc(OC)c1OC(F)F` [Example 18, N-[5-(difluoromethoxy)-4,6-dimethoxy-pyrimidin-2-yl]-5-(2-pyridyl)-1H-pyrrole-3-sulfonamide], for which 344 nM corresponded to half-maximal inhibition (IC50).

`COc1nc(NS(=O)(=O)c2c[nH]c(-c3ccccn3)c2)nc(OC)c1OCCF` [Example 27, N-[5-(2-fluoroethoxy)-4,6-dimethoxy-pyrimidin-2-yl]-5-(2-pyridyl)-1H-pyrrole-3-sulfonamide]: the midpoint of inhibition, the IC50, lay at 127 nM.

Compound `COc1nc(NS(=O)(=O)c2c[nH]cc2Cc2ccccc2)nc(OC)c1CC(F)F` [Example 21, 4-benzyl-N-[5-(2,2-difluoroethyl)-4,6-dimethoxy-pyrimidin-2-yl]-1H-pyrrole-3-sulfonamide] came in with an IC50 of 635 nM.

In turn, `COc1nc(NS(=O)(=O)c2c[nH]c(-c3cnccn3)c2)nc(OC)c1OCC(F)F` [Example 48, N-[5-(2,2-difluoroethoxy)-4,6-dimethoxy-pyrimidin-2-yl]-5-pyrazin-2-yl-1H-pyrrole-3-sulfonamide] came in with a half-inhibitory concentration (IC50) of 1320 nM.

As to `COc1nc(NS(=O)(=O)c2c[nH]c(-c3nccs3)c2)nc(OC)c1OCC(F)F` [Example 4, N-[5-(2,2-difluoroethoxy)-4,6-dimethoxy-pyrimidin-2-yl]-5-thiazol-2-yl-1H-pyrrole-3-sulfonamide], the IC50 was found to be 500 nM.

Regarding `COc1nc(NS(=O)(=O)c2c[nH]c(-c3ncccc3Cl)c2)nc(OC)c1OCC(F)F` [Example 46, 5-(3-chloro-2-pyridyl)-N-[5-(2,2-difluoroethoxy)-4,6-dimethoxy-pyrimidin-2-yl]-1H-pyrrole-3-sulfonamide], the half-maximal inhibitory concentration (IC50) amounted to 77 nM.

In the case of `COc1nc(NS(=O)(=O)c2c[nH]c(-c3cncs3)c2)nc(OC)c1OCC(F)F` [Example 36, N-[5-(2,2-difluoroethoxy)-4,6-dimethoxy-pyrimidin-2-yl]-5-thiazol-5-yl-1H-pyrrole-3-sulfonamide], half-maximal inhibition (IC50) required 111 nM.

Turning to `COc1nc(NS(=O)(=O)c2c[nH]c(C3CCC3)c2)nc(OC)c1OCC(F)F` [Example 51, 5-cyclobutyl-N-[5-(2,2-difluoroethoxy)-4,6-dimethoxy-pyrimidin-2-yl]-1H-pyrrole-3-sulfonamide], the IC50 was 304 nM.

Regarding `COc1nc(NS(=O)(=O)c2c[nH]c(-c3ncc(C)s3)c2)nc(OC)c1OCC(F)F` [Example 44, N-[5-(2,2-difluoroethoxy)-4,6-dimethoxy-pyrimidin-2-yl]-5-(5-methylthiazol-2-yl)-1H-pyrrole-3-sulfonamide], the concentration for half-maximal inhibition (IC50) amounted to 2670 nM.

The compound `COc1nc(NS(=O)(=O)c2c[nH]c(-c3ccccn3)c2)nc(OC)c1CC(F)F` [Example 17, N-[5-(2,2-difluoroethyl)-4,6-dimethoxy-pyrimidin-2-yl]-5-(2-pyridyl)-1H-pyrrole-3-sulfonamide] returned an IC50 of 133 nM.

Broadly, the IC50 is the concentration that inhibits the measured activity by half. A low value points to greater potency.

The record behind these values is patent US20250346580A1, “NOVEL PYRIMIDINYL SULFONAMIDE DERIVATIVES” (Hoffmann-La Roche Inc., priority 2023, published 2025).
